Experimental data: the supplement of paper PMC10307832

Key:
Assay in all cases: relative viability (nuclei count vs DMSO), 5 days (fraction); higher = more cells survive
[1] = compound: C1=CC2=C(C=C(C(=C2N=C1)O)N=NC3=CC4=C(C=C3)C=C(C=C4)S(=O)(=O)O)S(=O)(=O)O + CC1(C)CCC(c2ccc(Cl)cc2)=C(CN2CCN(c3ccc(C(=O)NS(=O)(=O)c4ccc(N[C@H](CCN5CCOCC5)CSc5ccccc5)c(S(=O)(=O)C(F)(F)F)c4)cc3)CC2)C1 [Navitoclax] (partner 0.5 µM)
Method in brief: (§1)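 Relative viability was taken as the ratio of nuclei in treated wells to nuclei in vehicle wells. Lung cancer cell lines in 1536-well plates received compounds by pin tool one day after seeding, either one drug alone or a fixed anchor-drug dose plus five library-drug doses (not always all listed) in √10 steps. Nuclei were counted on 4× images after 5 days of treatment, and values are medians of duplicate plates.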

[2] = compound: C1=CC2=C(C=C(C(=C2N=C1)O)N=NC3=CC4=C(C=C3)C=C(C=C4)S(=O)(=O)O)S(=O)(=O)O + CS(=O)(=O)CCNCc1ccc(-c2ccc3ncnc(Nc4ccc(OCc5cccc(F)c5)c(Cl)c4)c3c2)o1 [Lapatinib] (partner 2 µM)
Method in brief: as §1

AT-7519 + Luminespib = compound: O=C(NC1CCNCC1)c1n[nH]cc1NC(=O)c1c(Cl)cccc1Cl [AT-7519] + CCNC(=O)c1noc(-c2cc(C(C)C)c(O)cc2O)c1-c1ccc(CN2CCOCC2)cc1 [Luminespib] (partner 0.01 µM)
Method in brief: as §1

AT-7519 + Dasatinib = compound: O=C(NC1CCNCC1)c1n[nH]cc1NC(=O)c1c(Cl)cccc1Cl [AT-7519] + Cc1nc(Nc2ncc(C(=O)Nc3c(C)cccc3Cl)s2)cc(N2CCN(CCO)CC2)n1 [Dasatinib] (partner 0.075 µM)
Method in brief: as §1

Cell Line	relative viability ([1]; first compound 0.08 µM)	relative viability ([1]; first compound 0.253 µM)	relative viability ([1]; first compound 0.8 µM)	relative viability ([1]; first compound 2.53 µM)	relative viability ([1]; first compound 8 µM)	relative viability ([2]; first compound 0.08 µM)	relative viability ([2]; first compound 0.253 µM)	relative viability ([2]; first compound 0.8 µM)	relative viability ([2]; first compound 2.53 µM)	relative viability ([2]; first compound 8 µM)	relative viability (AT-7519 + Luminespib; first compound 0.01 µM)	relative viability (AT-7519 + Luminespib; first compound 0.03162 µM)	relative viability (AT-7519 + Luminespib; first compound 0.3162 µM)	relative viability (AT-7519 + Luminespib; first compound 1 µM)	relative viability (AT-7519 + Dasatinib; first compound 0.01 µM)	relative viability (AT-7519 + Dasatinib; first compound 0.03162 µM)	relative viability (AT-7519 + Dasatinib; first compound 0.3162 µM)	relative viability (AT-7519 + Dasatinib; first compound 1 µM)
NCI-H520	1.17	0.99	1.07	1.07	1.13	1.1	0.791	0.833	0.798	0.848	0.233	0.239	0.263	0.209	0.244	0.241	0.174	0.166
NCI-H647	1.19	0.955	0.938	1.24	1.23	1.64	0.828	0.974	0.998	0.904	0.209	0.244	0.148	0.0855	0.184	0.23	0.195	0.131
NCI-H1792	0.712	0.578	0.598	0.623	0.632	0.996	0.853	0.834	0.916	0.913		0.453	0.359	0.613			0.845	0.654
SK-LU-1	1.15	0.947	0.747	0.732	0.801	1.06	0.88	0.943	0.881	0.959	0.221	0.195	0.202	0.2	0.171	0.155	0.157	0.163
NCI-H1650	1.36	1.27	1.28	1.2	1.12	0.753	0.739	0.714	0.821	0.734	0.186	0.202	0.205	0.21	0.32	0.293	0.22	0.164
